Laboratory results as given in US11840528B2 (Hoffmann-La Roche Inc., priority 2018, dated 2023).

Columns and labels:
h-GABA-A α5β3γ2 [1] = target: T1, h-GABA-A α5β3γ2 (Homo sapiens, UniProt P18507+P31644); test: [3H]flumazenil competition binding assay, membranes of HEK293 cells expressing GABAA receptors; details: displacement of [3H]-Flumazenil 0.5 nM, HEK293 cells expressing human receptors, mean of two determinations; Table 1
Summary of the method: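 Receptor source: human α5β3γ2 transiently transfected into HEK293 cells, membranes in pH 7.5 Krebs-tris. Filtration through GF/C, then scintillation counting.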

h-GABA-A α5β3γ2 [2] = target: T1, h-GABA-A α5β3γ2; test: Two-electrode voltage clamp electrophysiology in Xenopus laevis oocytes expressing GABAA receptors, modulation of GABA EC20 current; assay type: cell-based; design: host or cells: Xenopus laevis oocytes micro-injected with RNA transcripts of the subunits; details: Table 1; for Efficacy (GABA) %: % modulation of GABA EC20 = 100*(Fold increase-1); for Fold increase h-GABA-A α5β3γ2 oocyte: test compound at approx. 30 fold its Ki, GABA at EC20
Summary of the method: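 Modulation is reported as % of the GABA EC20 current, calculated as 100*(Fold increase−1) from the peak ratio between a second GABA response carrying compound (applied at roughly 30-fold Ki) and a preceding control response. Oocytes expressing human α5β3γ2 were clamped at −80 mV at room temperature, 3–5 days after injection.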

SMILES | Ki (h-GABA-A α5β3γ2 [1]) | Efficacy (GABA) % (h-GABA-A α5β3γ2 [2]) | Fold increase h-GABA-A α5β3γ2 oocyte (h-GABA-A α5β3γ2 [2])
CO[C@@H]1CN(c2cnn(Cc3c(-c4ccc(C)nc4)noc3C)c(=O)c2)[C@@H]1C [Example 194, 5-[(2R,3R)-3-methoxy-2-methyl-azetidin-1-yl]-2-[[5-methyl-3-(6-methyl-3-pyridyl)isoxazol-4-yl]methyl]pyridazin-3-one] | 0.0108 µM | 152% | 2.52
Cc1ccc(-c2noc(C)c2Cn2ncc(N3CC4(CCCCC4)C3)cc2=O)cn1 [Example 195] | 0.0172 µM | 118% | 2.18
CCc1cc(-c2cnn(Cc3c(-c4ccc(C)nc4)noc3C)c(=O)c2)ccn1 [Example 196, 5-(2-ethyl-4-pyridyl)-2-((5-methyl-3-(6-methyl-3-pyridyl)isoxazol-4-yl)methyl)pyridazin-3-one] | 0.0037 µM | 98% | 1.98
CO[C@H]1CN(c2cnn(Cc3c(-c4ccc(C)nc4)noc3C)c(=O)c2)[C@H]1C [Example 197, 5-[(2S,3S)-3-methoxy-2-methyl-azetidin-1-yl]-2-[[5-methyl-3-(6-methyl-3-pyridyl)isoxazol-4-yl]methyl]pyridazin-3-one] | 0.002 µM | 131% | 2.31
CCO[C@H]1CN(c2cnn(Cc3c(-c4ccc(C)nc4)noc3C)c(=O)c2)[C@H]1C [Example 198, 5-[(2S,3S)-3-ethoxy-2-methyl-azetidin-1-yl]-2-[[5-methyl-3-(6-methyl-3-pyridyl)isoxazol-4-yl]methyl]pyridazin-3-one] | 0.0018 µM | 131% | 2.31
Cc1ccc(-c2noc(C)c2Cn2ncc(N3CC4(CCOCC4)C3)cc2=O)cn1 [Example 199, 2-((5-methyl-3-(6-methylpyridin-3-yl)isoxazol-4-yl)methyl)-5-(7-oxa-2-azaspiro[3.5]nonan-2-yl)pyridazin-3(2H)-one] | 0.0194 µM | 117% | 2.17
Cc1ccc(-c2noc(C)c2Cn2ncc(N3CC4(C[C@@H](F)CO4)C3)cc2=O)cn1 [Example 200, 5-[(7R)-7-fluoro-5-oxa-2-azaspiro[3.4]octan-2-yl]-2-[[5-methyl-3-(6-methyl-3-pyridyl)isoxazol-4-yl]methyl]pyridazin-3-one] | 0.0186 µM | 86% | 1.86
Cc1ccc(-c2noc(C)c2Cn2ncc(N3CC4(C[C@H](F)CO4)C3)cc2=O)cn1 [Example 201, 5-[(7S)-7-fluoro-5-oxa-2-azaspiro[3.4]octan-2-yl]-2-[[5-methyl-3-(6-methyl-3-pyridyl)isoxazol-4-yl]methyl]pyridazin-3-one] | 0.0143 µM | 93% | 1.93
CNc1cc(-c2cnn(Cc3c(-c4ccc(C)nc4)noc3C)c(=O)c2)ccn1 [Example 202, 2-((5-methyl-3-(6-methylpyridin-3-yl)isoxazol-4-yl)methyl)-5-(2-(methylamino)pyridin-4-yl)pyridazin-3(2H)-one] | 0.0042 µM | 96% | 1.96
Cc1ccc(-c2noc(C)c2Cn2ncc(N3CC4(C[C@@H](OC(F)F)CO4)C3)cc2=O)cn1 [Example 203, 5-[(7R)-7-(difluoromethoxy)-5-oxa-2-azaspiro[3.4]octan-2-yl]-2-[[5-methyl-3-(6-methyl-3-pyridyl)isoxazol-4-yl]methyl]pyridazin-3-one] | 0.0178 µM | 121% | 2.21
Cc1ccc(-c2noc(C)c2Cn2ncc(N3CC4(C[C@H](OC(F)F)CO4)C3)cc2=O)cn1 [Example 204, 5-[(7S)-7-(difluoromethoxy)-5-oxa-2-azaspiro[3.4]octan-2-yl]-2-[[5-methyl-3-(6-methyl-3-pyridyl)isoxazol-4-yl]methyl]pyridazin-3-one] | 0.0151 µM | 160% | 2.6
Cc1ncc(-c2noc(C)c2Cn2ncc(N3C[C@@H](C)O[C@@H](C)C3)cc2=O)cc1F [Example 205, 5-((2R,6S)-2,6-dimethylmorpholino)-2-((3-(5-fluoro-6-methylpyridin-3-yl)-5-methylisoxazol-4-yl)methyl)pyridazin-3(2H)-one] | 0.002 µM | 253% | 3.53
Cc1ccc(-c2noc(C)c2Cn2ncc(N3CC(OCC(F)F)C3)cc2=O)cn1 [Example 206, 5-[3-(2,2-difluoroethoxy)azetidin-1-yl]-2-[[5-methyl-3-(6-methyl-3-pyridyl)isoxazol-4-yl]methyl]pyridazin-3-one] | 0.0137 µM | 144% | 2.44
COc1cc(-c2cnn(Cc3c(-c4cnc(C)c(F)c4)noc3C)c(=O)c2)ccn1 [Example 207, 2-((3-(5-fluoro-6-methylpyridin-3-yl)-5-methylisoxazol-4-yl)methyl)-5-(2-methoxypyridin-4-yl)pyridazin-3(2H)-one] | 0.0148 µM | 75% | 1.75
Cc1ncc(-c2noc(C)c2Cn2ncc(N3CC4(CCCO4)C3)cc2=O)cc1F [Example 208, 2-((3-(5-fluoro-6-methylpyridin-3-yl)-5-methylisoxazol-4-yl)methyl)-5-(5-oxa-2-azaspiro[3.4]octan-2-yl)pyridazin-3(2H)-one] | 0.0612 µM | 110% | 2.1
Cc1onc(-c2ccc(Cl)nc2)c1Cn1ncc(N2CC3(CCCO3)C2)cc1=O [Example 209, 2-((3-(6-chloropyridin-3-yl)-5-methylisoxazol-4-yl)methyl)-5-(5-oxa-2-azaspiro[3.4]octan-2-yl)pyridazin-3(2H)-one] | 0.0527 µM | 94% | 1.94
CCCn1cc(-c2cnn(Cc3c(-c4ccc(C)nc4)noc3C)c(=O)c2)cn1 [Example 210, 2-((5-methyl-3-(6-methyl-3-pyridyl)isoxazol-4-yl)methyl)-5-(1-propylpyrazol-4-yl)pyridazin-3-one] | 0.026 µM | 143% | 2.43
Cc1ccc(-c2noc(C)c2Cn2ncc(-c3cccc(C#N)n3)cc2=O)cn1 [Example 211, 6-(1-((5-methyl-3-(6-methyl-3-pyridyl)isoxazol-4-yl)methyl)-6-oxo-pyridazin-4-yl)pyridine-2-carbonitrile] | 0.0409 µM | 324% | 4.24
COC1CN(c2cnn(Cc3c(-c4ccc(Cl)nc4)noc3C)c(=O)c2)C1 [Example 212, 2-((3-(6-chloropyridin-3-yl)-5-methylisoxazol-4-yl)methyl)-5-(3-methoxyazetidin-1-yl)pyridazin-3(2H)-one] | 0.0416 µM | 118% | 2.18
CCOC1CN(c2cnn(Cc3c(-c4cnc(C)c(F)c4)noc3C)c(=O)c2)C1 [Example 213, 5-(3-ethoxyazetidin-1-yl)-2-((3-(5-fluoro-6-methylpyridin-3-yl)-5-methylisoxazol-4-yl)methyl)pyridazin-3(2H)-one] | 0.0328 µM | 108% | 2.08
COc1cc(-c2cnn(Cc3c(-c4ccc(Cl)nc4)noc3C)c(=O)c2)ccn1 [Example 214, 2-((3-(6-chloropyridin-3-yl)-5-methylisoxazol-4-yl)methyl)-5-(2-methoxypyridin-4-yl)pyridazin-3(2H)-one] | 0.0083 µM | 74% | 1.74
Cc1onc(-c2ccc(Cl)nc2)c1Cn1ncc(-c2cnn(C)c2)cc1=O [Example 215, 2-((3-(6-chloropyridin-3-yl)-5-methylisoxazol-4-yl)methyl)-5-(1-methyl-1H-pyrazol-4-yl)pyridazin-3(2H)-one] | 0.05 µM | 119% | 2.19
Cc1ccc(-c2noc(C)c2Cn2ncc(N3CC4(CCCCO4)C3)cc2=O)cn1 [Example 216, 2-((5-methyl-3-(6-methylpyridin-3-yl)isoxazol-4-yl)methyl)-5-(5-oxa-2-azaspiro[3.5]nonan-2-yl)pyridazin-3(2H)-one] | 0.0158 µM | 103% | 2.03
Cc1onc(-c2ccc(Cl)nc2)c1Cn1ncc(N2CC3(C2)CC(F)(F)CO3)cc1=O [Example 217, 2-((3-(6-chloropyridin-3-yl)-5-methylisoxazol-4-yl)methyl)-5-(7,7-difluoro-5-oxa-2-azaspiro[3.4]octan-2-yl)pyridazin-3(2H)-one] | 0.0123 µM | 85% | 1.85
Cc1ccc(-c2noc(C)c2Cn2ncc(-c3ccc4ncc(C)n4c3)cc2=O)cn1 [Example 218, 2-((5-methyl-3-(6-methylpyridin-3-yl)isoxazol-4-yl)methyl)-5-(3-methylimidazo[1,2-a]pyridin-6-yl)pyridazin-3(2H)-one] | 0.0198 µM | 84% | 1.84
